Patent publication US12390447B2, “Sirtuin 6 protein deacylase (SIRT6) activators” (Wisconsin Alumni Research Foundation, priority 2019, dated 2025)

Tests used:
Type in all cases: biochemical
SIRT6 K160A = SIRT6 K160A (Homo sapiens, UniProt Q8N6T7, K160A); test: Steady-state deacetylation rate of SIRT6 K160A with or without CL5D; conditions: SIRT6 K160A 1 μM, H3K9ac 40 μM, CL5D 50 μM, 25 minutes
Experimental: (§1) All sirtuin deacylation assays were carried out at 37° C. in 20 mM potassium phosphate pH 7.5 with 0.5 mM NAD^+, 10% DMSO, and 20 μM H3K9ac or H3K9myr peptides, unless otherwise noted in legend, and quenched by the addition of 2% TFA final. Steady-state reactions were constrained to less than 20% substrate turnover to prevent product inhibition. A variety of times were required to monitor SIRT6 deacetylation (2-60 minutes) under this restraint given the ability to strongly activate catalysis. In these cases, specific activities were determined and either reported as is or as fold-activation of specific activity. Deacylation reactions were analyzed by reversed phase high-performance liquid chromatography on a Kinetex C18 column (100 Å, 100×4.6 mm, 2.6 μm, Phenomenex) by monitoring the formation of the deacylated product at 214 nm. Deacetylation reactions were analyzed using a gradient of 33-100% B (30% acetonitrile with 0.05% TFA) in 8 min at 1.6 mL min^−1. Demyristoylation reactions were analyzed using a gradient of 3 to 100% B (acetonitrile with 0.05% TFA) in 10 min at 1.6 mL min^−1. The product and substrate peaks were quantified and ratio of these allowed for quantification of product formation. Three independent experiments were performed for each condition with averages being plotted and error bars representing the standard deviation of these replicates. […]

SIRT6 WT = SIRT6 WT (Homo sapiens, UniProt Q8N6T7); test: Steady-state deacetylation rate of SIRT6 WT with or without CL5D; conditions: SIRT6 WT 1 μM, H3K9ac 40 μM, CL5D 50 μM, 25 minutes
Chain of SIRT6 WT (Q8N6T7 whole entry): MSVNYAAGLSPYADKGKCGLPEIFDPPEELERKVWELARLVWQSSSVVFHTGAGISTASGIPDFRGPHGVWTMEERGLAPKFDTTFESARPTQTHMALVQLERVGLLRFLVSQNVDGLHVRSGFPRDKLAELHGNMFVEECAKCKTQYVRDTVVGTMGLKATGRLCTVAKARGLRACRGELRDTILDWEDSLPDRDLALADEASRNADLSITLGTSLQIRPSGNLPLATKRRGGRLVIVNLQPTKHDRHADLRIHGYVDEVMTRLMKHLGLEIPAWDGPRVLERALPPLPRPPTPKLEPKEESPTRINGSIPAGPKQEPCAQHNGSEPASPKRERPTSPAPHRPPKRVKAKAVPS
Experimental: as §1

SIRT1 = target: T1, SIRT1 (Homo sapiens, UniProt Q96EB6); test: SIRT1 deacetylase activity against H3K9ac peptide; conditions: 400 μM compound
T1 sequence (Q96EB6 1-747): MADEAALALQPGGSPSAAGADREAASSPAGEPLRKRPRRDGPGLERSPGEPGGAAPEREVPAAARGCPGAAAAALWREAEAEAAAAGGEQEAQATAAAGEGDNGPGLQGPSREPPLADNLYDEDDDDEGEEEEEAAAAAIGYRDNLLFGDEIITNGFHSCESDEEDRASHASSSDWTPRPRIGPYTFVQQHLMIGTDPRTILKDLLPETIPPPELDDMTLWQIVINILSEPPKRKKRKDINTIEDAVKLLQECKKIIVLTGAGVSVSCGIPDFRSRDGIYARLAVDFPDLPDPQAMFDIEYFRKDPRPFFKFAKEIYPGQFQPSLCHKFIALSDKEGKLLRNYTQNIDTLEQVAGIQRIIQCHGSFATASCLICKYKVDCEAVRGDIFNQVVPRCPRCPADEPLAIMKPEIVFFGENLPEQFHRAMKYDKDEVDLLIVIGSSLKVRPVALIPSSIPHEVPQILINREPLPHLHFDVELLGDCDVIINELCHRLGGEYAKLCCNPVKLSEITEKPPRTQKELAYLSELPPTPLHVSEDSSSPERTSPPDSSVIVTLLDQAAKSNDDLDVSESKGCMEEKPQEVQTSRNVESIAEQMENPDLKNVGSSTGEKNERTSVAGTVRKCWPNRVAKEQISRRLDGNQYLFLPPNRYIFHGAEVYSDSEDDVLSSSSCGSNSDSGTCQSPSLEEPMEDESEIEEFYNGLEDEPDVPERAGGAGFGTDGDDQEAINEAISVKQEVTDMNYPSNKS
Experimental: FIGS. 1A-F illustrate the identification of novel SIRT6 activators. (1A) Compound libraries BML-2803, BML-2800, and an additional set of 178 molecules were screened at 100 μM for their ability to stimulate SIRT6 (1 μM) deacetylation of H3K9ac peptide (20 μM) in the presence of 0.5 mM NAD^+. SIRT6 activity was measured by HPLC quantification of H3K9ac and deacetylated product (inset) and fold activations relative to DMSO control were determined and compiled. (1B) Fold-activation of SIRT6 (1 μM) determined in the presence of either 0-400 μM CL4, 0-150 μM TTNPB, 0-100 μM Lysophosphatidic acid (LPA), or 0-200 μM linoleoylglycine (LGly). Maximum fold-activation and EC50 determined by sigmoidal curve fit. […] Constants Km, H3K9ac and kcat were determined by fitting data to Michaelis-Menten equation. (1D) Fold-activations of SIRT1 (0.1 μM), SIRT2 (0.2 μM), SIRT3 (1 μM), SIRT5 (2 μM), and SIRT6 (1 μM) determined in the presence of CL4 (100 μM), TTNPB (50 μM), and LPA (50 μM) relative to DMSO control against 20 μM H3K9ac peptide and 0.5 mM NAD^+. […]
All sirtuin deacylation assays were carried out at 37° C. in 20 mM potassium phosphate pH 7.5 with 0.5 mM NAD^+, 10% DMSO, and 20 μM H3K9ac or H3K9myr peptides, unless otherwise noted in legend, and quenched by the addition of 2% TFA final. […] The product and substrate peaks were quantified and ratio of these allowed for quantification of product formation. […]

Chain of SIRT6 K160A (Q8N6T7 whole entry K160A): as the sequence (Q8N6T7 whole entry) above, with K160A counted along it

- RateCL5D (SIRT6 K160A): 0.126 ± 0.006 µM/min
- RateCL5D (SIRT6 WT): 0.164 ± 0.008 µM/min
- SIRT1 deacetylase activity at high activator concentration (SIRT1): inhibited
Compound: O=C(O)c1ccc2c(c1)C(=O)N(c1ccc(N(C(=O)c3c(Cl)cc(Cl)cc3Cl)C(=O)c3c(Cl)cc(Cl)cc3Cl)c(Cl)c1)C2=O [CL-5D, 2-(3-chloro-4-(2,4,6-trichloro-N-(2,4,6-trichlorobenzoyl)benzamido)phenyl)-1,3-dioxoisoindoline-5-carboxylic acid]
